These results are taken from patent US6361815B1, “Products comprising trihydroxystilbenes and derivatives thereof and methods for their manufacture and use” (Pure World Botanicals, Inc., priority 1998, dated 2002).

The test system of assay [1] is carrageenan-induced pedal edema. The following applies: rats, cited from earlier work.
The subject of assay [2] is PC-3. The assay is described as follows: MTT assay, 6-cell line test, prostate PC-3. The assay is classed as cell-based, human. The following applies: PC-3 cells.
Experimental: (§1) Cells were planted in 96 well flat bottom plates with low evaporation lids. Three cell lines per plate were seeded in 0.2 ml medium per well. Each cell line was planted at the optimum concentration for its particular growth rate: H-29 and A-549, 5000 c/ml, MCF-7, 15000 c/well, KB and similar cells, 2500 c/ml, P388 and similar cells, 15000 c/ml. Products were tested at various dilutions (at least ten) to determine the ED 50.
Assay [3] relates to MCF-7. Kind of assay: MTT assay, 6-cell line test, breast MCF-7. Format: cell-based, human. The following applies: MCF-7 cells.
Experimental: as §1
The test system of assay [4] is A-478. The assay is described as follows: MTT assay, 6-cell line test, kidney A-478. The assay is classed as cell-based, human. To be noted: A-478 cells. (Tetrazolium dyes change colour on reduction, which living cells bring about.)
Experimental: as §1
Assay [5] has as its system PACA-2. Kind of assay: MTT assay, 6-cell line test, pancreatic PACA-2. The assay is classed as cell-based, human. To be noted: PACA-2 cells.
Experimental: as §1
The subject of assay [6] is HT-29. The assay is described as follows: MTT assay, 6-cell line test, colon HT-29. The assay is classed as cell-based, human. The following applies: HT-29 cells.
Experimental: as §1
In assay [7] the test system is A-549. Kind of assay: MTT assay, 6-cell line test, lung A-549. The assay is classed as cell-based, human. The following applies: A-549 cells.
Experimental: as §1
Assay [8] relates to DMBA-induced mammary tumors. The assay is described as follows: DMBA-induced mammary carcinogenesis in rats. Format: in vivo, Female Sprague-Dawley rats. To be noted: for Rat with Tumors, percentage in parentheses (reduction versus Control Diet + DMBA, not explained) / Tumors Per Rat, percentage in parentheses (reduction versus Control Diet + DMBA, not explained): Sulforaphane 50 mg/kg by gavage + DMBA; for Rat with Tumors (%) / Tumors Per Rat: Sulforaphane 50 mg/kg by gavage once a day, days 46-51 of age, + DMBA. On the procedure: Sulforaphane was orally administered by gavage (50 mg / kg body weight in 0.1 ml corn oil) to rats once a day at 46th, 47th, 48th, 49th, 50th and 51st days of their age. […] Palpable mammary tumors were counted every week after DMBA administration.

Structures are written as SMILES. Where a name gives a salt, the structure may show the parent alone.

As to `Oc1ccc(C=Cc2cc(O)cc(O)c2)cc1` [resveratrol, 3,4′,5-trihydroxystilbene], in assay [1] (acute phase (3 to 24 hours)), the “Pedal edema, acute phase” value is given as “significantly reduced pedal edema”. In assay [1] (chronic phase (24 to 144 hours)), the “Pedal edema, chronic phase” value is listed as “significantly reduced pedal edema”. In assay [1] (versus phenylbutazone and indomethacin), the “Edema-suppressing activity compared with reference drugs” value is “greater than that of phenylbutazone and similar to that of indomethacin”.
With `COc1cccc2c1C(=O)c1c(O)c3c(c(O)c1C2=O)C[C@@](O)(C(=O)CO)C[C@@H]3O[C@H]1C[C@H](N)[C@H](O)[C@H](C)O1` [Doxorubicin HCL], the “Prostrate PC-3 ED 50” value in assay [2] is 0.0281 µg/mL. The “Breast MCF-7 ED 50” value in assay [3] stood at 0.107 µg/mL. Moreover, in assay [4], the “Kidney A-478 ED 50” value was 0.00359 µg/mL. Further, the “Pancreatic PACA-2 ED 50” value in assay [5] worked out at 0.00522 µg/mL. Moreover, the “Colon HT-29 ED 50” value in assay [6] was 0.022 µg/mL. Further, in assay [7], the “Lung A-549 ED 50” value was 0.00316 µg/mL.
As to `OC[C@H]1O[C@@H](Oc2cc(O)cc(/C=C/c3ccc(O)cc3)c2)[C@H](O)[C@@H](O)[C@@H]1O` (relative stereo) [Fifth Product, 90% Piceid, 3,4′5-trans-trihydroxystilbene-3-β-mono-D-glucoside], the “Prostrate PC-3 ED 50” value in assay [2] stood at 80.58 µg/mL. Further, the “Breast MCF-7 ED 50” value in assay [3] amounted to 100 µg/mL. The “Kidney A-478 ED 50” value in assay [4] is 34.95 µg/mL. Also, the “Pancreatic PACA-2 ED 50” value in assay [5] amounted to 40.98 µg/mL. Moreover, in assay [6], the “Colon HT-29 ED 50” value was determined as 79.20 µg/mL. Moreover, the “Lung A-549 ED 50” value in assay [7] was determined as 35.77 µg/mL.
With `Oc1ccc(/C=C/c2cc(O)cc(O)c2)cc1` [3,4′,5-trihydroxy-trans-stilbene], in assay [2], the “Prostrate PC-3 ED 50” value amounted to 100 µg/mL. Besides, the “Breast MCF-7 ED 50” value in assay [3] was found to be 4.23 µg/mL. Moreover, the “Kidney A-478 ED 50” value in assay [4] came to 0.74 µg/mL. Also, in assay [5], the “Pancreatic PACA-2 ED 50” value amounted to 3.55 µg/mL. Further, in assay [6], the “Colon HT-29 ED 50” value amounted to 1.66 µg/mL. In addition, the “Lung A-549 ED 50” value in assay [7] came to 0.326 µg/mL.
`C[S+]([O-])CCCCN=C=S` (stereo not drawn) [Sulforaphane]: in assay [8] (9 weeks after DMBA), the “Rat with Tumors, percentage in parentheses (reduction versus Control Diet + DMBA, not explained)” value is reported as “(100%)”; the “Tumors Per Rat, percentage in parentheses (reduction versus Control Diet + DMBA, not explained)” value is listed as “(100%)”; the “Rat with Tumors (%)” value is 0%; the “Tumors Per Rat” value was 0. For the same molecule, in assay [8] (14 weeks after DMBA), the “Rat with Tumors, percentage in parentheses (reduction versus Control Diet + DMBA, not explained)” value is “(32%)”; the “Tumors Per Rat, percentage in parentheses (reduction versus Control Diet + DMBA, not explained)” value is listed as “(43%)”; the “Rat with Tumors (%)” value stood at 13%; the “Tumors Per Rat” value came to 0.13 ± 0.08. In assay [8] (22 weeks after DMBA), the “Rat with Tumors, percentage in parentheses (reduction versus Control Diet + DMBA, not explained)” value is on record as “(38%)”; the “Tumors Per Rat, percentage in parentheses (reduction versus Control Diet + DMBA, not explained)” value is reported as “(10%)”; the “Rat with Tumors (%)” value stood at 31%; the “Tumors Per Rat” value is given as 0.36 ± 0.33.
